Experimental data published in patent US20250312462A1, “PAK1 DEGRADERS AND METHODS OF USE THEREOF” (INSTITUTE FOR CANCER RESEARCH D/B/A THE RESEARCH INSTITUTE …, priority 2022, published 2025).
Where two headings read alike, the source gives them in different places.

Assays:
IRAK1 = IRAK1 (Homo sapiens, UniProt P51617); assay: KINOMEscan; settings: read-out: Percent Control
Protocol: (§1) The kinase engagement assay (KINOMEscan®) was performed by DiscoverX assessing binding abilities toward a set of kinases.

EGFR(L858R) = EGFR(L858R) (Homo sapiens, UniProt P00533, L858R); assay: KINOMEscan; settings: read-out: Percent Control
Protocol: as §1

[1] = target: ABL1(F317I)-phosphorylated (Homo sapiens, UniProt P00519, F317I); assay: KINOMEscan; settings: read-out: Percent Control
Protocol: as §1

EGFR(L861Q) = EGFR(L861Q) (Homo sapiens, UniProt P00533, L861Q); assay: KINOMEscan; settings: read-out: Percent Control
Protocol: as §1

CAMK2B = CAMK2B (Homo sapiens, UniProt Q13554); assay: KINOMEscan; settings: read-out: Percent Control
Protocol: as §1

OVCAR3 cells = assay: Cell proliferation, MTT assay; type: cell-based; settings: Homo sapiens, OVCAR-3, OVCAR3 cells, read-out: EC50, anti-proliferative
Protocol: […]. Cell proliferation was assessed by MTT assay. […].
Cells were plated at 2×10^3 cells per well in 96-well plates overnight and treated with various concentrations of Pak degraders for 72 hours. Cell viability was measured by MTT assay and the half maximal inhibitory concentration (IC50) was calculated using GraphPad Prism. Triplicates were performed for each sample and medium alone was used as a blank.
The anti-proliferative effects of PAK1 degradation and inhibition were evaluated. […]. […] […]. […] […].

MST4 = MST4 (Homo sapiens, UniProt Q9P289); assay: KINOMEscan; settings: read-out: Percent Control
Protocol: as §1

FER = FER (Homo sapiens, UniProt P16591); assay: KINOMEscan; settings: read-out: Percent Control
Protocol: as §1

BMPR2 = BMPR2 (Homo sapiens, UniProt Q13873); assay: KINOMEscan; settings: read-out: Percent Control
Protocol: as §1

FLT3(ITD) = assay: KINOMEscan; settings: 10 μM
Protocol: as §1

CDC2L1 = CDC2L1 (Homo sapiens, UniProt P21127); assay: KINOMEscan; settings: read-out: Percent Control
Protocol: as §1

PAK3 = PAK3 (Homo sapiens, UniProt O75914); assay: KINOMEscan; settings: read-out: Percent Control
Protocol: as §1

CAMK1D = CAMK1D (Homo sapiens, UniProt Q8IU85); assay: KINOMEscan; settings: read-out: Percent Control
Protocol: as §1

ABL1-nonphosphorylated = ABL1-nonphosphorylated (Homo sapiens, UniProt P00519); assay: KINOMEscan; settings: read-out: Percent Control
Protocol: as §1

CDK3 = CDK3 (Homo sapiens, UniProt Q00526); assay: KINOMEscan; settings: read-out: Percent Control
Protocol: as §1

NLK = NLK (Homo sapiens, UniProt Q9UBE8); assay: KINOMEscan; settings: read-out: Percent Control
Protocol: as §1

[2] = target: JAK1(JH2domain-pseudokinase) (Homo sapiens, UniProt P23458); assay: KINOMEscan; settings: read-out: Percent Control
Protocol: as §1

IKK-beta = IKK-beta (Homo sapiens, UniProt O14920); assay: KINOMEscan; settings: read-out: Percent Control
Protocol: as §1

BMX = BMX (Homo sapiens, UniProt P51813); assay: KINOMEscan; settings: read-out: Percent Control
Protocol: as §1

PYK2 = PYK2 (Homo sapiens, UniProt Q14289); assay: KINOMEscan; settings: read-out: Percent Control
Protocol: as §1

AURKC = AURKC (Homo sapiens, UniProt Q9UQB9); assay: KINOMEscan; settings: read-out: Percent Control
Protocol: as §1

YANK1 = YANK1 (Homo sapiens, UniProt Q8WU08); assay: KINOMEscan; settings: read-out: Percent Control
Protocol: as §1

TRKA = TRKA (Homo sapiens, UniProt P04629); assay: KINOMEscan; settings: read-out: Percent Control
Protocol: as §1

CAMK1B = CAMK1B (Homo sapiens, UniProt Q6P2M8); assay: KINOMEscan; settings: read-out: Percent Control
Protocol: as §1

YANK2 = YANK2 (Homo sapiens, UniProt Q9NY57); assay: KINOMEscan; settings: read-out: Percent Control
Protocol: as §1

CDK7 = CDK7 (Homo sapiens, UniProt P50613); assay: KINOMEscan; settings: read-out: Percent Control
Protocol: as §1

PAK1 = PAK1 (Homo sapiens, UniProt Q13153); assay: PAK1 degradation in Panc1 cells, Western blot; type: cell-based; set-up: endogenous in cells; settings: compared with BJG-05-014 and BJG-05-027
Protocol: In vitro kinase assays were performed using recombinant PAK1 and PAK2, using a library of small molecule protein kinase inhibitors. […] FIG. 1C is a series of Western blots showing the degradation of PAK1 in Panc1 cells by the NVS-PAK1-1-based (allosteric) degraders BJG-05-014, BJG-05-027, and BJG-05-039. Quantification is shown below in the bar graph. FIG. 1D is a series of Western blots showing PAK1, PAK2, and GAPDH in Panc1 cells treated with the indicated amounts of the NVS-PAK1-1-based degrader BJG-05-039 and ATP-competitive degraders BJG-05-093, BJG-05-094, and BJG-05-095.
BJG-05-014, BJG-05-027, and BJG-05-039 were tested in Panc1 cells for their ability to degrade PAK1.

[3] = target: ABL1(T315I)-nonphosphorylated (Homo sapiens, UniProt P00519, T315I); assay: KINOMEscan; settings: read-out: Percent Control
Protocol: as §1

[4] = target: RSK1(Kin.Dom.2-C-terminal) (Homo sapiens, UniProt Q15418); assay: KINOMEscan; settings: read-out: Percent Control
Protocol: as §1

FAK = FAK (Homo sapiens, UniProt Q05397); assay: KINOMEscan; settings: read-out: Percent Control
Protocol: as §1

Chain of PAK1 (Q13153 whole entry): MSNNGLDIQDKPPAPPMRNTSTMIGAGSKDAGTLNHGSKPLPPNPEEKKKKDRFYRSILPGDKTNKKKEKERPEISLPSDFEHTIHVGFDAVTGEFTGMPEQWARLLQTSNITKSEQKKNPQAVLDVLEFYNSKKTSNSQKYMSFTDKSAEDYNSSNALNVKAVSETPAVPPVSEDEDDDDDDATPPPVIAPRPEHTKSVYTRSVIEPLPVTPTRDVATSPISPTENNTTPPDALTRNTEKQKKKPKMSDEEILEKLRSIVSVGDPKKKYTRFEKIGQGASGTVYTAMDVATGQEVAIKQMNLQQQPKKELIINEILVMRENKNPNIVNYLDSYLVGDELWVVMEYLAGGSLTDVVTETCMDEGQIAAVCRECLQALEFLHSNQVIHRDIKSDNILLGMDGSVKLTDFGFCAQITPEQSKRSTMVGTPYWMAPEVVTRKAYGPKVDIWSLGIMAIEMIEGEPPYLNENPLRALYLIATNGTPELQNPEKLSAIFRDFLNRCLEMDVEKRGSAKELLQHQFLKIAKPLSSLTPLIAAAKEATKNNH
Chain of JAK1(JH2domain-pseudokinase) (P23458 583-855 limits assumed): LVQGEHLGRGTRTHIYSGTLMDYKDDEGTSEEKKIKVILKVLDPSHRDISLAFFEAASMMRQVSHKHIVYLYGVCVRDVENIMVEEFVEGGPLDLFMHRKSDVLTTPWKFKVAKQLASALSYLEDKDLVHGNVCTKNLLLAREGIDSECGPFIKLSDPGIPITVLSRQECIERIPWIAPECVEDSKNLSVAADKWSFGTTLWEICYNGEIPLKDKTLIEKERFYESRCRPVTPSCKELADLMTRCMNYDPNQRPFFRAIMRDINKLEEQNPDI
Chain of BMPR2 (Q13873 27-1038): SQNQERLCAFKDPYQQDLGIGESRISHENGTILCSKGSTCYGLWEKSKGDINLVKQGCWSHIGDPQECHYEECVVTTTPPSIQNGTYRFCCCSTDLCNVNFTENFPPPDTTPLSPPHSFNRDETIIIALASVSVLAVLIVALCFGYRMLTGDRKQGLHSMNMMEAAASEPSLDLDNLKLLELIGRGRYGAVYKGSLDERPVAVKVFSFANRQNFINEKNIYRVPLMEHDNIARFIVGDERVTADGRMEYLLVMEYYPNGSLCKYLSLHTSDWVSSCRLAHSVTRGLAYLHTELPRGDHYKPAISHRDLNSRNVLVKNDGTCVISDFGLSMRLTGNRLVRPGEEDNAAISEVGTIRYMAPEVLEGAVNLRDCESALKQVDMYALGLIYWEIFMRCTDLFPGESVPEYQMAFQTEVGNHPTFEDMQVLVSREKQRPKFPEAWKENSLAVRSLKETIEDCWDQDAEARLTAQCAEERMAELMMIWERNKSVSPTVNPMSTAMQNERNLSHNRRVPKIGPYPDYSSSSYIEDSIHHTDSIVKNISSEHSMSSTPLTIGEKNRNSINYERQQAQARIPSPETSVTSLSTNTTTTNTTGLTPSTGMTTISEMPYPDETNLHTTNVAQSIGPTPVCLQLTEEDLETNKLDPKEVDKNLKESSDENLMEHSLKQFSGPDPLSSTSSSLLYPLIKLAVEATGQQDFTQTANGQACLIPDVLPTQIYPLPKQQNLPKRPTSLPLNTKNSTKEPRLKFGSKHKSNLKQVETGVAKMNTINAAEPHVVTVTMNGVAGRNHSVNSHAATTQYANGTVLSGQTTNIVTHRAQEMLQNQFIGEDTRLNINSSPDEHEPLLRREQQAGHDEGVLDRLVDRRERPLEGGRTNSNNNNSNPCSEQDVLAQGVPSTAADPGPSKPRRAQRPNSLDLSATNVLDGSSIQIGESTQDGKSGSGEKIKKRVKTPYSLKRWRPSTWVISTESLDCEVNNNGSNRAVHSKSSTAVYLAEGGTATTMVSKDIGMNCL
Chain of MST4 (Q9P289 whole entry): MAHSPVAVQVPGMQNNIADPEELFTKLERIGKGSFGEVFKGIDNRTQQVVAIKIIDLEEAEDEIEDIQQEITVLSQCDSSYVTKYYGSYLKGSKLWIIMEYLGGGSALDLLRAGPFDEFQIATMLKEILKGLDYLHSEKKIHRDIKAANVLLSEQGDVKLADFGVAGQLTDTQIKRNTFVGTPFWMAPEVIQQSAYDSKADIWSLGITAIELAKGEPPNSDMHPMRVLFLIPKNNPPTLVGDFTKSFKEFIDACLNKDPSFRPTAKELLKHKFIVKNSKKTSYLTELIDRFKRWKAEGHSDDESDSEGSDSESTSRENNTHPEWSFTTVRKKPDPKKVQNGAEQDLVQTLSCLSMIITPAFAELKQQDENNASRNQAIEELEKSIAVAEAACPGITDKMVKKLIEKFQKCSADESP
Chain of CAMK2B (Q13554 whole entry): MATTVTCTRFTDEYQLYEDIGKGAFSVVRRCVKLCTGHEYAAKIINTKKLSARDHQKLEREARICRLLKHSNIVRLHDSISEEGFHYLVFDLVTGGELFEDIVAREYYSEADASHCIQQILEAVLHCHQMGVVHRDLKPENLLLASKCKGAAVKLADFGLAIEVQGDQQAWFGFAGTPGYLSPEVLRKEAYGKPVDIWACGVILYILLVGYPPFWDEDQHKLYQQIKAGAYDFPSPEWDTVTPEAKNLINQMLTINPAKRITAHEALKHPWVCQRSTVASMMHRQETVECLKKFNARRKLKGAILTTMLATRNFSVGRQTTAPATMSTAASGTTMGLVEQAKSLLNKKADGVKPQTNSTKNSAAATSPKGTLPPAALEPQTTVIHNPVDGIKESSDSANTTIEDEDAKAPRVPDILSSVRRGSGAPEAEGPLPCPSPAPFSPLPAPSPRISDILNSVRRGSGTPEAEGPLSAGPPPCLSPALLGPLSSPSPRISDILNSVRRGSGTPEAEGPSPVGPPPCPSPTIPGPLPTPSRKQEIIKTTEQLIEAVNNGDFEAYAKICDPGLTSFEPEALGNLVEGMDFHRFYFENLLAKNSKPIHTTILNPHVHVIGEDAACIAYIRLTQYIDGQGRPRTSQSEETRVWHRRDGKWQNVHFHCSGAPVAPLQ
Chain of TRKA (P04629 33-796): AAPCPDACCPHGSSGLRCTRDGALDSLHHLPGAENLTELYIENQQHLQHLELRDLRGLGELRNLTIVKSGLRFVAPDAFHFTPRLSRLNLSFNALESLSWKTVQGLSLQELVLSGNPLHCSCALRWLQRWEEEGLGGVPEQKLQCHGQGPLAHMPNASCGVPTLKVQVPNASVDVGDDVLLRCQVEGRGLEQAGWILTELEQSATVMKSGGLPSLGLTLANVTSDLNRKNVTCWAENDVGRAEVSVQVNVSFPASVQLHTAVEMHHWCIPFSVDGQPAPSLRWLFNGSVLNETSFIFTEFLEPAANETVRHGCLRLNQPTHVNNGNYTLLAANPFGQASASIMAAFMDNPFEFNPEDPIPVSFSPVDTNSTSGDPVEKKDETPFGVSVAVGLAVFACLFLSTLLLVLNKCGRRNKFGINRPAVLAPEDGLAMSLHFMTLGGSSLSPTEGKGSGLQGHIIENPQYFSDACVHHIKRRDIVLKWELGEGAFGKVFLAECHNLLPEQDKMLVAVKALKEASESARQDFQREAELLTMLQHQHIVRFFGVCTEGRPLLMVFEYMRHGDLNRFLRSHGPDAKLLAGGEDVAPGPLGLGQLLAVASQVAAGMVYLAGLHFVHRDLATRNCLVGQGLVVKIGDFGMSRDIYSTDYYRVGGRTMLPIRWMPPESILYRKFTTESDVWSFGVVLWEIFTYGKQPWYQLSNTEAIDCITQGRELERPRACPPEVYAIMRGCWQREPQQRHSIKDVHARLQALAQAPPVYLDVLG
Chain of EGFR(L858R) (P00533 25-1210 L858R): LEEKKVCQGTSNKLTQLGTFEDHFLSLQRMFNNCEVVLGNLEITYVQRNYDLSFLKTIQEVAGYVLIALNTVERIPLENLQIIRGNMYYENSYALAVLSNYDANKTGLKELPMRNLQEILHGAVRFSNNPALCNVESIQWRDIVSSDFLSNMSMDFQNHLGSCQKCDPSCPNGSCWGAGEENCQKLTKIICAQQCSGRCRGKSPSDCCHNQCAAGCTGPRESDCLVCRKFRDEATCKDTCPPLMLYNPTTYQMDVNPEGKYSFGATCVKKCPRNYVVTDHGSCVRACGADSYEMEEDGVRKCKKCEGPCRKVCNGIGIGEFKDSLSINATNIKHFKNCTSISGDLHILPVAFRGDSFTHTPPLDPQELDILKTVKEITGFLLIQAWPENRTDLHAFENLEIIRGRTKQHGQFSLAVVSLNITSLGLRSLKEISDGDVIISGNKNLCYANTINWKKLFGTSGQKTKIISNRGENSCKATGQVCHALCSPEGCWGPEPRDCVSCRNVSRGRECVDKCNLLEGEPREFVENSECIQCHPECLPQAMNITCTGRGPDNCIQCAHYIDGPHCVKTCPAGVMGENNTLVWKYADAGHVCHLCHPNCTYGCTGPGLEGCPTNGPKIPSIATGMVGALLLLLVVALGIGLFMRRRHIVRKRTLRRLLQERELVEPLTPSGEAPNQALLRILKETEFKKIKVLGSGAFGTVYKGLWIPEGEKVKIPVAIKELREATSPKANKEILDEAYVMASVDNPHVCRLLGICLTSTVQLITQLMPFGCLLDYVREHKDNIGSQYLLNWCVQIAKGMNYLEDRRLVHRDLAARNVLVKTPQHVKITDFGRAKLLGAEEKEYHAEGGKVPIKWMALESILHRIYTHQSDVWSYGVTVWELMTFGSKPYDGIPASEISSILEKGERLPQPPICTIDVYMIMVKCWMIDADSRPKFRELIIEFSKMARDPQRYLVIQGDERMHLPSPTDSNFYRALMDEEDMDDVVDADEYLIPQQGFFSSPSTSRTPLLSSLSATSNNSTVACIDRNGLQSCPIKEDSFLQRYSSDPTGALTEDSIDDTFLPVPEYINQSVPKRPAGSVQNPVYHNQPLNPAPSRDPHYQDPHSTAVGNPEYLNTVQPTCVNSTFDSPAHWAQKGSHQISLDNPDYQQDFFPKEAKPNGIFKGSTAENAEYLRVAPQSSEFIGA

O=C1CCC(N2C(=O)c3cccc(NCCCCCCCCNC(=O)N4CC[C@H](NC5=Nc6cc(F)ccc6N(CC(F)F)c6ccc(Cl)cc65)C4)c3C2=O)C(=O)N1 (stereo partly drawn) [BJG-05-039, (3S)-3-((2-Chloro-5-(2,2-difluoroethyl)-8-fluoro-5H-dibenzo[b,e][1,4]diazepin-11-yl)amino)-N-(8-((2-(2,6-dioxopiperidin-3-yl)-1,3-dioxoisoindolin-4-yl)amino)octyl)pyrrolidine-1-carboxamide]
remaining binding at 10 µM (IRAK1): 100%
remaining binding at 10 µM (EGFR(L858R)): 74%
remaining binding at 10 µM [1]: 100%
remaining binding at 10 µM (EGFR(L861Q)): 88%
remaining binding at 10 µM (CAMK2B): 46%
EC50 (OVCAR3 cells; first statement of b311): 0.0084 µM
EC50 (OVCAR3 cells; second listing of b311): 0.102 µM
remaining binding at 10 µM (MST4): 86%
remaining binding at 10 µM (FER): 88%
remaining binding at 10 µM (BMPR2): 100%
Percent Control (FLT3(ITD)): 87
remaining binding at 10 µM (CDC2L1): 53%
remaining binding at 10 µM (PAK3): 100%
remaining binding at 10 µM (CAMK1D): 68%
remaining binding at 10 µM (ABL1-nonphosphorylated): 83%
remaining binding at 10 µM (CDK3): 74%
remaining binding at 10 µM (NLK): 53%
remaining binding at 10 µM [2]: 100%
remaining binding at 10 µM (IKK-beta): 94%
remaining binding at 10 µM (BMX): 90%
remaining binding at 10 µM (PYK2): 85%
remaining binding at 10 µM (AURKC): 83%
remaining binding at 10 µM (YANK1): 100%
remaining binding at 10 µM (TRKA): 72%
remaining binding at 10 µM (CAMK1B): 87%
remaining binding at 10 µM (YANK2): 99%
remaining binding at 10 µM (CDK7): 100%
Ability to degrade PAK1 (PAK1): most promising profile
remaining binding at 10 µM [3]: 86%
remaining binding at 10 µM [4]: 48%
remaining binding at 10 µM (FAK): 65%
